Data on six compounds can be found in US20050003998A1, “Therapeutic use of selective LXR modulators” (priority 2002, published 2005).

Entries after “also recorded” stand apart in the source; their conditions may differ.

Series [1] concerns mouse adult neural stem cells derived from the lateral ventricle wall. Nature of the series: Intracellular ATP assay on adult mouse neurosphere cultures. The series is classed as cell-based. The note with it: for intracellular ATP levels, and hence cell number (adult mouse NSC proliferation or survival in vitro): 3 days, non-adherent conditions, values normalized to the vehicle (100%). On the procedure:
The anterior lateral wall of the lateral ventricle of 5-6 week old mice was enzymatically dissociated in 0.8mg/ml hyaluronidase and 0.5 mg/ml trypsin in DMEM containing 4.5 mg/ml glucose and 80units/ml DNase at 37° C. for 20 min. The cells were gently triturated and mixed with three volumes of Neurosphere medium (DMEM/F12, B27 supplement, 12.5 mM HEPES pH7.4) containing 20 ng/ml EGF (unless otherwise stated), 100units/ml penicillin and 100 μg/ml streptomycin. After passing through a 70 μm strainer, the cells were pelleted at 160×g for 5 min. The supernatant was subsequently removed and the cells resuspended in Neurosphere medium supplemented as above, plated out in culture dishes and incubated at 37° C. Neurospheres were ready to be split approximately 7 days after plating.
To split neurosphere cultures, neurospheres were collected by centrifugation at 160×g for 5 min. The neurospheres were resuspended in 0.5 ml Trypsin/EDTA in HBSS (1×), incubated at 37° C. for 2 min and triturated gently to aid dissociation. Following a further 3 min incubation at 37° C. and trituration, 3 volumes of ice cold NSPH-media-EGF were added to stop further trypsin activity. The cells were pelleted at 220×g for 4 min, resuspended in fresh Neurosphere medium supplemented with 20 ng/ml EGF and 1 nM bFGF plated out and incubated at 37° C.
Mouse neurospheres, cultured as described above, from passage 2, were seeded in DMEM/F12 supplemented with B27 into a 96-well plate as single cells (10000 cells/well) to the substances to be measured were added at the concentrations indicated. After 3 days incubation, intracellular ATP was measured using the ATP-SL kit from BioThema, Sweden, according to the manufacturer's instructions. The LXR agonists: 5-Cholesten-24(s), 25-epoxy-3b-ol were purchased from Steraloids (no C6640-000): TO-901317 were purchased from Sigma-Aldrich (no T2320). The RXR agonist cis-4,7,10,13,16,19-Docosahexaenoic acid (DHA) were purchased from Sigma-Aldrich (no 43938). […]

The subject of the next series is irritant dermatitis. The note with it: phorbol 12-myristate-13-acetate on ears of CD1 mice; cited from earlier work.
The test system of series [2] is rat pheochromocytoma cells. Particulars: cited from earlier work.
The test system of the next series is phospholipase A2 (PLA2). Particulars: cited from earlier work; for PLA2 enzymatic activity / PLA2 mRNA: rat smooth muscle cells.
Series [3] concerns beta-amyloid induced apoptosis. The note with it: Alzheimer's disease; cited from earlier work.
Series [4] relates to cells in the LVW. Nature of the series: Intracerebroventricular infusion of TO-901317, BrdU incorporation in the lateral ventricle wall. Format: in vivo, male Wistar rats. The note with it: icv infusion 0.6 nmol/animal/day, 14 days, rat; calculated day concentration 0.2 μM. On the procedure: 10 week old male Wistar rats maintained on a 12hr light/dark cycle with food and water ad libidum, were infused in the right lateral ventricle with TO-901317 (Sigma-Aldrich), using an Alzet pump (2002), 14 days at a daily dose of 0.6 nmol/animal/day (infused at a rate of 0.5 μl/hr; 50 μM solution). Bromodeoxyuridine (BrdU) (50 mg/ml) was also included in the infusion vehicle (0.9% saline containing 1 mg/ml mouse serum albumin (Sigma)) to enable measurement of proliferation by quantitation of BrdU incorporation in the DNA. Animals were sacrificed at day 14, perfused with PBS and the brains removed and frozen at −70° C. prior to sectioning for immumohistochemical analysis.
Brains were cut into 14-μm coronal sections using a cryostat-microtome. The sections were thawed onto pretreated slides and fixed in 4% (wt/vol) paraformaldehyde/PBS for 10 min. […] After 1 hour of washing, the BrdU-antibody complex was detected using 0.05% diaminobenzidine with 0.01% H2O2, and counterstained with Hematoxylin. […]
(§1) For all BrdU labeling experiments, three to six sections per animal were analyzed. BrdU-positive cells were counted along 2×250 micrometer strips of the lateral ventricle wall (including the ependymal cell layer and subventricular zone). […] The numbers of BrdU-positive cells are calculated per area (mm^2). The mean ± SEM were calculated. Differences between means were determined by one-way ANOVA.

The nature of series [5]: Weight gain and food intake during oral administration. Format: in vivo, C57BL/6J male mice. The note with it: chow with 0.025% or 0.0025% compound, mouse. On the procedure: (§2) C57BL/6J male mice were housed under controlled temperature and humidity and had free access to water and chow. 40 mice were divided into 5 groups (n=8). Group 1 received chow mixed with 0.025% T0901317 (Sigma-Aldrich) ad libitum for 10 days (dose previously show to be effective for brain activity of the compound). On day 7 and 8 the animals received a single injection of 5-bromodeoxyuridine, 100 mg/kg i.p., respectively and were sacrificed on day 10 by means of cervical dislocation.
Group 2 received identical treatment except that the chow in this case contained 0.0025% T0901317. Group 3 and 4 received identical treatments as groups 1 and 2, respectively, with the exception that these animals received 5-bromodeoxyuridine injections on day 1 and 2 after the initiation of the experiment and were sacrificed on day 4. Group 5 served as control and received chow without any T0901317 but identical to groups 1-4 received two daily injections of 5-bromodeoxyuridine 100 mg/kg i.p. and was sacrificed two days later. The mean daily intake was 4.25±0.13 (S.E.M.) g chow, and the mean weight of the animals 24.8±0.11 (S.E.M.) g during the cause of the experiment resulting in an average dose of 43 mg/kg/day for groups 1 and 3 (“High”), and an average dose of 4.3 mg/kg/day for groups 2 and 4 (“Low”). […] No correlation between weight gain, food intake or BrdU incorporation could be detected. […]

Series [6] has as its system cells in the LVW. Description: Oral administration of TO-901317 in chow, BrdU incorporation in the lateral ventricle wall. Format: in vivo, C57BL/6J male mice. The note with it: 4.3 and 43 mg/kg/day, mouse. On the procedure: as §2
Group 2 received identical treatment except that the chow in this case contained 0.0025% T0901317. […] No correlation between weight gain, food intake or BrdU incorporation could be detected. […]
Brains were cut into 14-μm coronal sections using a cryostat-microtome. […] After 1 hour of washing, the BrdU-antibody complex was detected using 0.05% diaminobenzidine with 0.01% H2O2, and counterstained with Hematoxylin. […]
as §1

In the case of `C[C@H](CC[C@@H]1OC1(C)C)[C@H]1CC[C@H]2[C@@H]3CC=C4C[C@@H](O)CC[C@]4(C)[C@H]3CC[C@]12C` [5-Cholesten-24(s), 25-epoxy-3b-ol], the “intracellular ATP levels, and hence cell number (adult mouse NSC proliferation or survival in vitro)” value in series [1] is on record as “mediates adult mouse NSC proliferation or survival in vitro”.
As to `CC(C)CC[C@@H](O)[C@@H](C)[C@H]1CC[C@H]2[C@@H]3CC=C4C[C@@H](O)CC[C@]4(C)[C@H]3CC[C@]12C` [22(R)-hydroxycholesterol], the irritant dermatitis result in the series with irritant dermatitis was “able to reduce irritant dermatitis”. Also, the “neuronal differentiation measured as neurite outgrowth” value in series [2] is given as “induces neuronal differentiation”. For the same compound, in the series on phospholipase A2 (PLA2), the PLA2 enzymatic activity result is “increased enzymatic activity” and the “PLA2 mRNA” value was “accumulation of PLA2 mRNA”. For the same compound, the PLA2 promoter activity result with phospholipase A2 (PLA2) (transient transfection, in combination with 9-cis-retinoic acid) was “synergistically activated”. The beta-amyloid induced apoptosis entry in series [3] is on record as “prevention of beta-amyloid induced apoptosis”.
As to `C[C@H](CCCC(C)(C)O)[C@H]1CC[C@H]2[C@@H]3CC=C4C[C@@H](O)CC[C@]4(C)[C@H]3CC[C@]12C` [25-hydroxycholesterol], the irritant dermatitis entry in the series with irritant dermatitis is on record as “able to reduce irritant dermatitis”. Also, in the series on phospholipase A2 (PLA2), the PLA2 enzymatic activity result is “increased enzymatic activity” and the “PLA2 mRNA” value is listed as “accumulation of PLA2 mRNA”.
Take `O=C(O)Cc1cccc(OCCCN(Cc2cccc(C(F)(F)F)c2Cl)CC(c2ccccc2)c2ccccc2)c1` [GW3965]: in the series on irritant dermatitis, the irritant dermatitis entry is “able to reduce irritant dermatitis”.
As for `O=S(=O)(c1ccccc1)N(CC(F)(F)F)c1ccc(C(O)(C(F)(F)F)C(F)(F)F)cc1` [TO-901317], the “incorporation of BrdU in the LVW” value in the series with cells in the LVW [4] is reported as “did not significantly change; also recorded: ineffective”. In series [1], the “intracellular ATP levels, and hence cell number (adult mouse NSC proliferation or survival in vitro)” value is “mediates adult mouse NSC proliferation or survival in vitro”. In addition, the “concentration-response relationship observed in vitro with cultured mouse NSC” value in series [1] (Example 2, effective concentrations) lay in the range of 3 to 5 µM. The “weight gain or food intake” value in series [5] is “No difference between groups”. For the same compound, the “incorporation of BrdU of cells in the LVW” value in the series with cells in the LVW [6] is on record as “significantly decreased; also recorded: clearly effective”.
On to `CCCCCCCCCCCCCCOc1ccc(C(=O)O)o1` [TOFA, 5-tetradecyloxy-2-furancarboxylic acid], for which the “neuronal differentiation measured as neurite outgrowth” value in series [2] is “induces neuronal differentiation”.
